Common to all, as to type: physicochemical
One data set is described as follows: Solubility in water.
Data set [1] can be described thus: Particle size of sildenafil free base, Mastersizer 2000 (Malvern), wet method. How it is done: (§1) A preparative experimentation was conducted to analyze the particle size of a sildenafil free base and the characteristics thereof in several film preparations depending on the rpm conditions (3,000 or 5,000 rpm) of a homogenizer (AGI homomixer) and homogenization times (0, 10 and 30 minutes), the film preparations having the same compositions as the Examples shown in Table 6.
First, the raw materials of a sildenafil free base before homogenization were measured for their particle size using Mastersizer 2000 (Malvern) by a wet method, and the results thereof are shown in Table 1. The same procedure was repeated three times.
The particle size changes of a sildenafil free base depending on homogenization times were measured under the condition of a larger scale than the previous experimentation. The homogenization was carried out using a homogenizer (IKA) at 5,000 rpm with increasing homogenization time. The sildenafil free base-containing film preparations used in the homogenization had the same compositions as the Examples shown in Table 6.
(§2) In order to prepare films containing sildenafil free base particles having a smaller size, the film preparation having the same compositions as the Example 8 shown in Table 6 were subject to homogenization using a homogenizer (IKA) at 10,000 rpm for 1 hour.

Data set [2] is described as follows: Visual characteristics of the film prepared (particles, transparency). How it is done: as §1, §2
Where [3] appears, read: after homogenization 3000 rpm, 30 minutes.
The mark [4] stands for this setting: after homogenization 5000 rpm, 10 minutes.
[5] abbreviates: sildenafil free base raw material before homogenization (Initial).

Counter-ions that a name gives are not always drawn.

On to `CCCc1nn(C)c2c(=O)[nH]c(-c3cc(S(=O)(=O)N4CCN(C)CC4)ccc3OCC)nc12` [sildenafil free base], for which the Solubility in water entry in “Solubility in water” is given as “practically insoluble in water”. Further, the “Particle size D10” value worked out at 8.91 μm in data set [1] (setting [3]) and 8.59 μm in data set [1] (setting [4]). In addition, the figures for the “Particle size D90” value in data set [1] (setting [3]) and in data set [1] (setting [4]) were 109.66 μm and 85.99 μm, respectively. In data set [1] (setting [5]), this molecule returned a D10 of 13.48 μm. Also, in data set [1] (setting [5]), the D90 stood at 281.74 μm. For the same molecule, the Characteristics entry in data set [2] (3000 rpm, 30 minutes) is on record as “Particles were visually observed”; in data set [2] (5000 rpm, 10 minutes), “Particles were scarcely observed”.
As to `CCCc1nn(C)c2c(=O)[nH]c(-c3cc(S(=O)(=O)N4CCN(C)CC4)ccc3OCC)nc12` [sildenafil citrate], in “Solubility in water”, the Solubility in water result is “can dissolve in water”.

Values taken from patent US9907759B2, “Sildenafil-free base-containing film preparation and method for producing same” (CTC Bio, Inc., priority 2011, dated 2018).
